PubChem BioAssay (NCI)
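Dose response: 5 concentrations. Exposure: 48 h. Format: 96-well plates. Endpoint: linear interpolation; highest concentration if not reached. TGI denotes the concentration required for complete inhibition of growth.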

Legend:
Assay in all cases: DTP human tumour cell line panel, 48 h
HCT-116 colon = system: HCT-116 colon
HL-60(TB) leukemia = system: HL-60(TB) leukemia
M14 melanoma = system: M14 melanoma
OVCAR-5 ovarian = system: OVCAR-5 ovarian
RPMI-8226 leukemia = system: RPMI-8226 leukemia
SNB-19 CNS = system: SNB-19 CNS
SNB-75 CNS = system: SNB-75 CNS
U251 CNS = system: U251 CNS
UACC-62 melanoma = system: UACC-62 melanoma
DU-145 prostate = system: DU-145 prostate
HS 578T breast = system: HS 578T breast

Structure (SMILES)	TGI (HCT-116 colon)	TGI (HL-60(TB) leukemia)	TGI (M14 melanoma)	TGI (OVCAR-5 ovarian)	TGI (RPMI-8226 leukemia)	TGI (SNB-19 CNS)	TGI (SNB-75 CNS)	TGI (U251 CNS)	TGI (UACC-62 melanoma)	TGI (DU-145 prostate)	TGI (HS 578T breast)
CCCCc1c2c(nc3c1CCCC3O)/C(=C/c1ccccc1)CCC2 (configuration not stated)	> 100 µM	43 µM	53.8 µM	> 100 µM	46.2 µM	> 100 µM	> 100 µM	64.1 µM	95.7 µM		
COC(OC)c1cccc2c1C(=O)CCC1(O)c3ccccc3C1C2 (configuration not stated)	> 100 µM	> 100 µM	> 100 µM	> 100 µM	69.8 µM	> 100 µM	> 100 µM		> 100 µM		
COc1ccc(C2C3C(=O)C=CC(=O)C3[C@@H]2C)cc1OC (some centres not stated)	> 100 µM		> 100 µM	> 100 µM	63.1 µM	> 100 µM	> 100 µM	> 100 µM	> 100 µM		
O=C1CCC[C@]2(CCC[C@@H](O)C2)N1	> 100 µM	> 100 µM	> 100 µM	> 100 µM		> 100 µM	> 100 µM			> 100 µM	> 100 µM
N#Cc1c(-c2ccco2)cc(-c2ccc(NCc3nc4ccccc4[nH]3)cc2)nc1N	45.9 µM	47.3 µM	35.8 µM	> 100 µM	62 µM	> 100 µM	91.6 µM	> 100 µM	45.1 µM		
CCCC/C=C/C1Cc2ccccc2CN1S(=O)(=O)c1ccc(C)cc1 (configuration not stated)	3.35 µM	> 100 µM	26 µM	82.3 µM	5.72 µM	> 100 µM	37.5 µM	39.3 µM	27.5 µM		
CC1CC[C@@]2(OC1)OC1C[C@H]3[C@@H]4C/C(=N\N(C)C)[C@@]5(O)CC(O)CC[C@]5(C)[C@H]4CC[C@]3(C)C1[C@@H]2C (some centres not stated)	76.1 µM	54.3 µM	> 100 µM	> 100 µM	> 100 µM	> 100 µM		> 100 µM	> 100 µM	> 100 µM	> 100 µM
NC(=O)N1N=C2c3ccccc3CC[C@@H]2C1c1ccccc1 (some centres not stated)	> 100 µM	> 100 µM	> 100 µM	> 100 µM	> 100 µM	> 100 µM	> 100 µM	> 100 µM	> 100 µM		
O=c1cc(N2CCOCC2)[nH]c(=O)n1-c1cccc(C(F)(F)F)c1	> 100 µM	> 100 µM	> 100 µM	> 100 µM			> 100 µM	> 100 µM	> 100 µM	> 100 µM	> 100 µM
COC(=O)C1=C(C(=O)OC)C2(OC(C)=O)c3ccccc3-c3ccccc3C12 (configuration not stated)	7.98 µM		9.47 µM	27.2 µM	6.56 µM	> 55 µM	24.4 µM	20.1 µM	24.4 µM		
Cc1ccc(-c2c(C#N)c(S)n(NS(=O)(=O)c3ccc(C)cc3)c(=O)c2C#N)cc1	90.9 µM	> 100 µM	81.5 µM	67 µM	> 100 µM	52.1 µM	37.4 µM	37.7 µM	> 100 µM	> 100 µM	
CSc1nc(-c2cc3c(c(SC)n2)CCCCC3)cc2c1CCCCC2	> 100 µM	> 100 µM	> 100 µM	> 100 µM	> 100 µM	> 100 µM	> 100 µM	> 100 µM	> 100 µM	> 100 µM	
O=C1/C(=C\c2cccc(Oc3ccccc3)c2)S(=O)(=O)C(c2ccccc2)N1c1ccc(Cl)cc1 (configuration not stated)	26.8 µM	32.7 µM	26.9 µM	88.7 µM	> 100 µM	55.9 µM	> 100 µM	30.5 µM	57 µM	37.4 µM	
COc1cc(C2c3cc4c(cc3OC(Nc3ccc(C(=O)O)cc3)C2C)OCO4)cc(OC)c1OC (configuration not stated)	12.2 µM	0.541 µM	31.8 µM	> 100 µM	25 µM	> 93.4 µM	3.53 µM	30 µM	> 61.9 µM		
COC(=O)C1(Cc2ccc3c(c2)CCC3)Cc2ccc3c(c2C1O)CCC3 (configuration not stated)	28.1 µM	> 100 µM			59.4 µM		> 100 µM	30.6 µM	32.9 µM	46.4 µM	42.1 µM
CN(C)c1ccc(/C=C(\C#N)C(N)=C(C#N)C#N)cc1	> 100 µM	> 100 µM	> 100 µM	> 100 µM		> 100 µM		> 100 µM	> 100 µM	> 100 µM	> 100 µM
CSC(C1c2ccccc2N(C)C2=NC(=O)N(C)C(=O)C21Cl)S(=O)(=O)c1ccc(C)cc1 (configuration not stated)	> 100 µM	39.7 µM		> 100 µM	57.8 µM	> 100 µM	75.9 µM	> 100 µM	> 100 µM		
C[C@H](Nc1c(O)c2c(c(O)c1Cl)C(=O)C=CC2=O)C(=O)Nc1ccc([N+](=O)[O-])cc1	2.7 µM		2.53 µM	3.51 µM	> 10 µM	9.59 µM	> 10 µM	6.02 µM	6.16 µM	3.22 µM	> 10 µM
O=C/C(=C(/Br)I)c1ccccc1	4.52 µM	1.13 µM	4.01 µM	23.6 µM		31.4 µM	18.7 µM	13.7 µM	44.4 µM	29.2 µM	> 60 µM
O=C(/C=C/c1ccc(Cl)cc1)Oc1ccc(/C=C2\CCCCC2=O)cc1	> 100 µM	> 100 µM	> 100 µM	> 100 µM	> 100 µM		> 100 µM	> 100 µM	> 100 µM	> 100 µM	> 100 µM
N#Cc1c(-c2ccc([N+](=O)[O-])cc2)cc(-c2ccc(Nc3ccnc4cc(C(F)(F)F)ccc34)cc2)nc1N	27.5 µM		36.4 µM	> 73.8 µM	> 54.5 µM	34.7 µM	49.8 µM	21.9 µM	> 100 µM	> 43.3 µM	66.1 µM
Nc1nc(SCCNC(=O)CCc2ccc(O)cc2)nc2c1ncn2C1OC(CO)C(O)C1O (configuration not stated)	> 203 µM	> 203 µM	> 203 µM	> 203 µM	> 203 µM	> 203 µM	> 203 µM	> 203 µM	> 203 µM		
Clc1ccc(SCCSCCCCCCCCCCSCCSc2ccc(Cl)cc2)cc1		> 100 µM		> 100 µM	> 100 µM	> 100 µM	> 100 µM	> 100 µM	> 100 µM		
